In patent publication US11666642B2, “PDE5 compositions and methods for immunotherapy” (Obsidian Therapeutics, Inc., priority 2017, dated 2023):

System: hPDE5 truncation mutants (R732L) fused to AcGFP in HCT-116 cells
Test: Expression of hPDE5 truncation mutants, GFP MFI by FACS
Format: cell-based, human
Excerpt: Several truncation mutants of the full length hPDE5 were generated to identify regions beyond the […] catalytic domain that may serve as a template for identifying DDs. The truncation mutants tested included amino acids 535-860 of hPDE5 WT (E535-Q860), amino acids 535 to 836 of hPDE5 WT (E535-S836), amino acids 590 to 860 of hPDE5 WT (M590-Q860), amino acids 590 to 836 of hPDE5 WT (M590-S836), wherein the amino acids positions are with respect to SEQ ID NO. 1. The DD mutation R732L was incorporated into all truncation mutants and its destabilizing potential was compared to E535-Q860 wildtype by fusing the mutants to an SG linker and reporter, AcGFP. […] As a control, parental untransduced cells and cells expressing OT-hPDE5N-001, or OT-hPDE5N-028 were also included in the analysis. The mean fluorescence intensity (MFI) of GFP was analyzed by FACS. […] The destabilizing mutation coefficient was calculated as the fold change in GFP intensity in the hPDE5 mutant constructs compared to the hPDE5 wildtype construct (OT-hPDE5N-019) in the absence of the ligand. Destabilizing mutation coefficients less than 1 are desirable. Stabilization ratios greater than 1 are desired in DDs.

OT-hPDE5N-020: construct consisting of E535-Q860 amino acids of hPDE5 with the R732L mutant, SG linker, AcGFP; single mutant construct
ligand dependent stabilization (stabilization ratio) of truncation mutants (10 μM Sildenafil or Vardenafil, 48 hours, HCT-116): strongest ligand dependent stabilization with both ligands | Sildenafil Stabilization ratio (10 μM Sildenafil vs DMSO, 48 hours): 6.02 | Vardenafil Stabilization ratio (10 μM Vardenafil vs DMSO, 48 hours): 10.08 | MFI Sildenafil (HCT-116, 10 μM Sildenafil, 48 hours): 55636 | MFI Vardenafil (HCT-116, 10 μM Vardenafil, 48 hours): 93216 | MFI DMSO (HCT-116, DMSO, 48 hours): 9248 | destabilizing mutation coefficient (vs hPDE5 wildtype construct in absence of ligand): 0.14
